US20230212549A1, “COMPOUNDS COMPRISING A […] LIGAND AND USE THEREOF” (priority 2021, published 2023)
Numbered stars: 1 amine (or outer) side, 2 acyl side, 3 side chain; on linkers, the order of the positions; unused ones are H or OH. Bridge positions count the residues as written; N and C are the ends. Square brackets hold non-standard residues; d marks the D form. Peptide text beside a SMILES is read from it. * marks the point of attachment. ξ: configuration not given here. X7 = O=C(CCP(=O)(O)CN1CCN(CP(=O)(O)CO)CCN(CP(=O)(O)CO)CC1)NCCSCc1cc(C[*:1])cc(C[*:2])c1; X1 = NCCNCC(CNCCN)C(=O)N1CCN(CC(=O)NCCCOCCOCCOCCCN*)CC1; mXylylene = c1cc(C[*:1])cc(C[*:2])c1; Suc = O=C(CCC(=O)[*:2])[*:1]; Nle = CCCC[C@H](N)C(=O)O; CO = O=C([*:1])[*:2]; ξC = NC(CS)C(=O)O; NHBu = CCCCN*

Assays:
Human recombinant FAP [1] = target: T1, Human recombinant FAP (Homo sapiens, UniProt Q12884); test: FRET-based FAP protease activity assay; type: biochemical; set-up: purchased R&D systems 3715-SE
[2] = target: T2, FAP-expressing human WI-38 fibroblasts (Homo sapiens, UniProt Q12884); test: Competitive FACS binding assay
T2 construct: FAP-expressing human WI-38 fibroblasts (ECACC) were cultured in EMEM; host or cells: WI-38 human fibroblasts
Experimental: Cells were analyzed in an Attune NxT flow cytometer. […] […].
Cells were analyzed in an Attune NxT flow cytometer. […]

in vivo [3] = settings: swiss nude, mouse, iv
[4] = Radiochemical purity by HPLC of ^99mTc-labeled compounds; type: physicochemical; settings: 99Tc-labeled compounds
Experimental: 100-500 MBq of ^99mTcO4 (in saline) were mixed with 11 μl of 0.5 M phosphate buffer pH 11.5-12.0 and 1.1 μl of 0.1 M trisodium citrate per 100 μl radionuclide solution. […] The mixture was incubated for 30 min at 25-50′° C. At the end of the incubation time, the mixture was neutralized with 3.0 μl 1 M HCl per 10 μl phosphate buffer and TWEEN-20 was added at a final concentration of 0.100.

in vivo [5] = settings: female, athymic nude, mouse, iv
Human recombinant FAP [6] = target: T1, Human recombinant FAP; test: Surface plasmon resonance (Biacore) assay; type: binding
[7] = pIC50 Category (activity), Recombinant human FAP

T1 sequence (Q12884 whole entry): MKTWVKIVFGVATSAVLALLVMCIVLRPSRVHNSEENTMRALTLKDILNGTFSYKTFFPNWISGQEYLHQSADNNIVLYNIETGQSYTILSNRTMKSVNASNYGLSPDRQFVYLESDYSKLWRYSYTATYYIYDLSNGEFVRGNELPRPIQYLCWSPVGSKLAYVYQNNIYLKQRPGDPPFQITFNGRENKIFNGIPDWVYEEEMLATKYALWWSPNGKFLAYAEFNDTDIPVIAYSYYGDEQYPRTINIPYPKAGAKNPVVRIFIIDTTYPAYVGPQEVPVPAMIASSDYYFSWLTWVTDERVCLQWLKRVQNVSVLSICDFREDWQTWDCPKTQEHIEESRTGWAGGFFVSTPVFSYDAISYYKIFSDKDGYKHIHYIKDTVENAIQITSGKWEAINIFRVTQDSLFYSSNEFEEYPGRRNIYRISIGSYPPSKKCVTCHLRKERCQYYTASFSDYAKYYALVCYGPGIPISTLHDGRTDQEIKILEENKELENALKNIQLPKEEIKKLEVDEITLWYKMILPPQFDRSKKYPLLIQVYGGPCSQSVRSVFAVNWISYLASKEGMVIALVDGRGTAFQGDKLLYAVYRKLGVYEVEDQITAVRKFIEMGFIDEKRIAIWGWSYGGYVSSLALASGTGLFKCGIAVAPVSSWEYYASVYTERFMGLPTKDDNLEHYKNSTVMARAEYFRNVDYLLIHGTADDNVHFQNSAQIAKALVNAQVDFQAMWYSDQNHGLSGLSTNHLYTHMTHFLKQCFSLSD
T2 sequence (Q12884 whole entry): as above

## CCCC[C@H](NC(=O)CCC(=O)NCCCOCCOCCOCCCNC(=O)CN1CCN(C(=O)C(CNCCN)CNCCN)CC1)C(=O)N[C@H]1CSCc2cccc(c2)CSC[C@@H](C(=O)O)NC(=O)[C@H](Cc2ccccc2)NC(=O)[C@H](CCC(=O)O)NC(=O)[C@H]([C@@H](C)O)NC(=O)[C@@H]2CCCN2C(=O)[C@@H]2CCCN2C1=O [3BP-4782, N4Ac-PPAc-Ttds-Nle-[Cys(3MeBn)-Pro-Pro-Thr-Glu-Phe-Cys]-OH] ({X1-Suc}-[Nle]CPPTEFC-OH; linker 2-8 via mXylylene)
Human recombinant FAP [1]; [7]
  IC50: 0.01 to 0.0794 µM
[2]
  IC50: 0.01 to 0.0794 µM
In vivo [3]; blood pool surrogate (BPS)
  tissue uptake at 1 h: 0.69 %ID/g
  tissue uptake at 3 h: 0.47 %ID/g
  tissue uptake at 6 h: 0.36 %ID/g
In vivo [3]; kidneys
  tissue uptake at 1 h: 7.28 %ID/g
  tissue uptake at 3 h: 5.78 %ID/g
  tissue uptake at 6 h: 4.24 %ID/g
In vivo [3]; tumor
  tissue uptake at 1 h: 6.2 %ID/g
  tissue uptake at 3 h: 6.77 %ID/g
  tissue uptake at 6 h: 7.17 %ID/g
[4]
  HPLC Area % appr. 4 h post end of synthesis: 95.8%
  HPLC Area % at end of synthesis: 97.1%

## CCCCNC(=O)N[C@H]1CSCc2cc(CSCCNC(=O)CN3CCN(CC(=O)O)CCN(CC(=O)O)CC3)cc(c2)CSCC(C(=O)O)NC(=O)[C@H](Cc2ccccc2)NC(=O)[C@H](CCC(N)=O)NC(=O)[C@H]([C@@H](C)O)NC(=O)[C@@H]2CCCN2C(=O)[C@@H]2CCCN2C1=O (stereo partly drawn) [3BP-5210, nBu-CAyl-[Cys(tMeBn(NOTA-AET))-Pro-Pro-Thr-Gln-Phe-Cys]-OH]
Human recombinant FAP [1]; [7]
  IC50: < 0.01 µM
In vivo [5]; blood pool surrogate (BPS)
  tissue uptake at 0.25 h: 2.72 %ID/g
  tissue uptake at 1 h: 0.68 %ID/g
  tissue uptake at 3 h: 0.14 %ID/g
In vivo [5]; kidneys
  tissue uptake at 0.25 h: 37.3 %ID/g
  tissue uptake at 1 h: 5.61 %ID/g
  tissue uptake at 3 h: 0.42 %ID/g
In vivo [5]; tumor
  tissue uptake at 0.25 h: 7.48 %ID/g
  tissue uptake at 1 h: 8.9 %ID/g
  tissue uptake at 3 h: 9.53 %ID/g
[2]
  IC50: < 0.01 µM
Human recombinant FAP [6]
  Kd: < 0.01 µM

## CCCCNC(=O)N[C@H]1CSCc2cc(CSCCNC(=O)CCP(=O)(O)CN3CCN(CP(=O)(O)CO)CCN(CP(=O)(O)CO)CC3)cc(c2)CSCC(C(=O)O)NC(=O)[C@H](Cc2ccccc2)NC(=O)[C@H](CCC(=O)O)NC(=O)[C@H]([C@@H](C)O)NC(=O)[C@@H]2CCCN2C(=O)[C@@H]2CCCN2C1=O (stereo partly drawn) [3BP-4778, nBu-CAyl-[Cys(tMeBn(NOPO-AET))-Pro-Pro-Thr-Glu-Phe-Cys]-OH] ({NHBu-CO}-CPPTEF[ξC]-OH; linker 1-7 via X7)
Human recombinant FAP [1]; [7]
  IC50: < 0.01 µM
In vivo [5]; blood pool surrogate (BPS), uptake BPS 0.25 h, ^68Ga-labeled, BPS (blood pool surrogate), PET/CT, 0.25 h post tracer injection
  tissue uptake at 0.25 h: 1.61 %ID/g
In vivo [5]; blood pool surrogate (BPS), uptake BPS 1 h, ^68Ga-labeled, BPS (blood pool surrogate), PET/CT, 1 h post tracer injection
  tissue uptake at 1 h: 0.77 %ID/g
In vivo [5]; blood pool surrogate (BPS), uptake BPS 3 h, ^68Ga-labeled, BPS (blood pool surrogate), PET/CT, 3 h post tracer injection
  tissue uptake at 3 h: 0.33 %ID/g
In vivo [5]; kidneys, uptake Kidneys 0.25 h, ^68Ga-labeled, PET/CT, 0.25 h post tracer injection
  tissue uptake at 0.25 h: 3.38 %ID/g
In vivo [5]; kidneys, uptake Kidneys 1 h, ^68Ga-labeled, PET/CT, 1 h post tracer injection
  tissue uptake at 1 h: 1.81 %ID/g
In vivo [5]; kidneys, uptake Kidneys 3 h, ^68Ga-labeled, PET/CT, 3 h post tracer injection
  tissue uptake at 3 h: 1 %ID/g
In vivo [5]; tumor, uptake Tumor 0.25 h, ^68Ga-labeled, HEK-FAP tumor, PET/CT, 0.25 h post tracer injection
  tissue uptake at 0.25 h: 3.66 %ID/g
In vivo [5]; tumor, uptake Tumor 1 h, ^68Ga-labeled, HEK-FAP tumor, PET/CT, 1 h post tracer injection
  tissue uptake at 1 h: 4.06 %ID/g
In vivo [5]; tumor, uptake Tumor 3 h, ^68Ga-labeled, HEK-FAP tumor, PET/CT, 3 h post tracer injection
  tissue uptake at 3 h: 4.45 %ID/g
[2]
  IC50: < 0.01 µM
Human recombinant FAP [6]
  Kd: < 0.01 µM

## CCCCNC(=O)N[C@H]1CSCc2cc(CSCCNC(=O)C(CNCCN)CNCCN)cc(c2)CSC[C@@H](C(=O)O)NC(=O)[C@H](Cc2ccccc2)NC(=O)[C@H](CCC(N)=O)NC(=O)[C@H]([C@@H](C)O)NC(=O)[C@@H]2CCCN2C(=O)[C@@H]2CCCN2C1=O [3BP-4534, nBu-CAyl-[Cys(tMeBn(N4Ac-AET))-Pro-Pro-Thr-Gln-Phe-Cys]-OH]
Human recombinant FAP [1]; pIC50 Category (Activity), FRET-peptide substrate, 37° C.
  IC50: < 0.01 µM
[2]
  IC50: < 0.01 µM
In vivo [3]; blood pool surrogate (BPS)
  tissue uptake at 1 h: 1.7 %ID/g
  tissue uptake at 3 h: 1.19 %ID/g
  tissue uptake at 6 h: 0.78 %ID/g
In vivo [3]; kidneys
  tissue uptake at 1 h: 2.06 %ID/g
  tissue uptake at 3 h: 1.4 %ID/g
  tissue uptake at 6 h: 1.09 %ID/g
In vivo [3]; tumor
  tissue uptake at 1 h: 5.67 %ID/g
  tissue uptake at 3 h: 6.85 %ID/g
  tissue uptake at 6 h: 7.68 %ID/g
[4]
  HPLC Area % at end of synthesis: 98.6%
[4]; (3 h)
  HPLC Area % appr. 4 h post end of synthesis: 97.5%

## CCCC[C@H](NC(=O)CCC(=O)NCCCOCCOCCOCCCNC(=O)CN1CCN(CC(=O)O)CCN(CC(=O)O)CC1)C(=O)N[C@H]1CSCc2cccc(c2)CSCC(C(=O)O)NC(=O)[C@H](Cc2ccccc2)NC(=O)[C@H](CCC(N)=O)NC(=O)[C@H]([C@@H](C)O)NC(=O)[C@@H]2CCCN2C(=O)[C@@H]2CCCN2C1=O (stereo partly drawn) [3BP-5201, NOTA-Ttds-Nle-[Cys(3MeBn)-Pro-Pro-Thr-Gln-Phe-Cys]-OH]
Human recombinant FAP [1]; [7]
  IC50: 0.01 to 0.0794 µM
In vivo [5]; blood pool surrogate (BPS)
  tissue uptake at 0.25 h: 2.31 %ID/g
  tissue uptake at 1 h: 0.85 %ID/g
  tissue uptake at 3 h: 0.38 %ID/g
In vivo [5]; kidneys
  tissue uptake at 0.25 h: 9.27 %ID/g
  tissue uptake at 1 h: 1.97 %ID/g
  tissue uptake at 3 h: 1 %ID/g
In vivo [5]; tumor
  tissue uptake at 0.25 h: 5.56 %ID/g
  tissue uptake at 1 h: 6.3 %ID/g
  tissue uptake at 3 h: 6.25 %ID/g
[2]
  IC50: < 0.01 µM
Human recombinant FAP [6]
  Kd: < 0.01 µM
